Measured values from US5358936A, “Anionic furanose derivatives, methods of making and using the same” (Gordon; Paul, priority 1991, dated 1994).
Where “and” joins values, the source holds several entries; their conditions need not be identical. Equal entries are not always repeated. Structures can show the parent of a compound that is named as a salt.

Assays:
rat paw [1] = assay: Post-ischemic reperfusion paw swelling (Example 22); assay type: in vivo, Sprague Dawley male rats; settings: for % Change as a result of treatment / Paw swelling, Mean ± SE: another study; for Paw swelling, Mean ± SE: i.p. 45 minutes prior; for Post-ischemic reperfusion 30 minute paw swelling, Mn ± SE: P < 0.02
Procedure, shortened: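 Male Sprague Dawley rats (240-280 g) were dosed intraperitoneally 45-60 min before a tourniquet was placed on the left hind leg under ether anesthesia. Injury taken as the increase in dorsoventral foot diameter (caliper), mainly 30 min into reperfusion, as mean ± SE, n = 5-6; allopurinol was the reference treatment.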

peritoneal neutrophils = assay: In vitro neutrophil chemotaxis toward zymosan-activated rat serum (Example 24); assay type: cell-based, mouse; settings: for Percent Inhibition of chemotaxis: tripotassium salt
Procedure, shortened: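 Peritoneal neutrophils (>90%) from mice 24 h after CFA injection; 1×10^5 cells placed above an 8 μm filter, with 20% zymosan-activated rat serum in RPMI 1640/10% FCS below. Incubated 6 h at 37 °C; Giemsa-stained cells on the filter underside counted, in duplicate. ID50 is the concentration inhibiting chemotaxis by 50%.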

rat paw [2] = assay: Rat paw edema provoked by neutral proteases (Example 32); assay type: in vivo; settings: two hours; SOD IV; Compound III IP and IV
Procedure: (§1) Both tryptic activity and collagenase activity are components of the tissue-injuring neutral proteinase activities secreted by neutrophils. Collagenase activity has also been associated with injury to cartilage; and, in another context, with the micro-injury to blood vessels that permits the extravasation and metastasis of, and by, tumor cells.
(§2) The effects of Compound III on rat and mouse paw edema as provoked by injection of these enzymes were evaluated. SOD injected IV and Compound III injected IP and IV at zero time, (as in Example 25), inhibited edema at two hours by from 33-40 percent, in both species. […] Both drug effects were significant by t test, SOD at P<0.05 and Compound III at P<0.01.

mouse blood coagulation = assay: Blood coagulation, in vitro clotting time (Example 31 A); settings: 10 μg/ml in normal saline
Procedure: To assess the effect on coagulation, if any, of a compound of the invention, a comparative evaluation was made using mouse blood.
One ml of freshly drawn mouse blood was added to each tube, and the tube contents were mixed. The clotting time was then noted for each tube, and the results are as shown below:

mouse paw [3] = assay: Mouse paw edema provoked by clostridial collagenase (Example 32); assay type: in vivo; settings: for maximal drug inhibition of edema: lower enzyme level (0.05 μg/ml), 100 mg/kg divided IV and IP
Procedure: Further, mouse paw edema was provoked by two levels of clostridial collagenase enzyme, in the supramaximal range (0.05 μg/ml and 0.15 μg/ml), and treated with one level of drug (Compound III; 100 mg/kg divided equally and administered IV and IP at zero time). The maximal drug inhibition observed was 81 percent at one hour and 87 percent at two hours, for the lower level of enzyme.

[4] = Dissolution and buffering of suspensions, HCl titration (Example 16); settings: HCl titration
From the text: Note that the term "apparent pK" in this context is meant to encompass the maximization of buffering that come both from solid-state dissolution and its titration as solute.

mouse paw [5] = assay: Mouse paw edema provoked by neutral proteases (Example 32); assay type: in vivo; settings: two hours; SOD 150 units IV; Compound III 50 mg/kg IP and IV; SOD P<0.05, Compound III P<0.01
Procedure: as §1, §2

lung gross pathology = assay: Generalized Schwartzmann Reaction (Example 28 A); assay type: in vivo, rabbit; settings: P < 0.01
Procedure: The Generalized Schwartzmann Reaction (GSR) is a pathology in which two intravenous injections of non-lethal amounts of bacterial endotoxin, when separated by 8 to 36 hours, promote thrombotic and tissue-destructive processes in the lung, producing disseminated pulmonary thrombosis and necrosis in otherwise untreated rabbits.
A. In this study, eight six-week old salmonella-free male rabbits each weighing about 1.5 kg were injected IV with saline vehicle and eight similar rabbits were injected IV with 50 mg/kg of Compound III in the same vehicle. One hour later, all of the animals were injected IV with 100 μg of E. coli lipopolysaccharide (LPS; Sigma Chemical Co.) on day one and with the same amount of LPS on day two, twenty hours later. Animals were evaluated for clinical signs at 24 and 48 hours, and were sacrificed for organ evaluation 48 hours after the second endotoxin injection.
In assessing gross pathology, separate scores were developed in four categories and these were then summed and added, in one instance, to a score for clinical signs.
Gross Pathology Categories
(1) Surface redness, diffuse or mottled (reflecting hyperemia, hemostasis).+2 to +4.
(2) Discrete focal surface lesions (reflecting thrombosis without disruption of gross pulmonary architecture).

Structure (SMILES): CC1(C)O[C@H]2O[C@H]([C@@H](COS(=O)(=O)O)OS(=O)(=O)O)[C@H](OS(=O)(=O)O)[C@H]2O1 [Compound III, 1,2-O-(2-Propylidene)-3,5,6-tri-O-sulfo-α-D-glucofuranose, tripotassium salt]
- % Change as a result of treatment (rat paw [1]; reperfusion time 20 mins., i.p.): -46%
- Paw swelling, Mean ± SE (rat paw [1]; reperfusion time 20 mins., control 8.20 ± 1.02): 4.60 ± 0.40 0.1 mm
- % Change as a result of treatment (rat paw [1]; reperfusion time 30 mins., i.p.): -36%
- Paw swelling, Mean ± SE (rat paw [1]; reperfusion time 30 mins., control 6.60 ± 0.87): 4.20 ± 0.37 0.1 mm
- inhibition of ischemic rat paw edema (rat paw [1]; oral treatment route, after 20 minutes): 44%
- Swelling change as a result of treatment (rat paw [1]; study A, 30 minutes reperfusion, 0.2 mg/kg i.p.): -53%
- Post-ischemic reperfusion 30 minute paw swelling, Mn ± SE (rat paw [1]; study A, Compound III 0.2 mg/kg i.p. 45-60 minutes before tourniquet, control 12.7 ± 0.98): 6.0 ± 0.32 0.1 mm
- Swelling change as a result of treatment (rat paw [1]; study B, 30 minutes, i.p., Compound III 0.2 mg/kg, allopurinol 20 mg/kg): -40%
- Post-ischemic reperfusion 30 minute paw swelling, Mn ± SE (rat paw [1]; study B, i.p., Compound III 0.2 mg/kg, allopurinol 20 mg/kg, control 20.5 ± 0.76): 12.2 ± 0.70 0.1 mm
- Post-ischemic reperfusion 30 minute paw swelling, Mn ± SE (rat paw [1]; study C, 0.2 mg/kg i.p., control 18.4 ± 0.54): 10.2 ± 0.28 0.1 mm
- Swelling change as a result of treatment (rat paw [1]; study C, 30 minutes, 0.2 mg/kg i.p.): -45%
- times as potent as ibuprofen and prednisone in chemotaxis inhibition (peritoneal neutrophils): 100-1000 times
- IC50 (peritoneal neutrophils; Mus musculus, Neutrophil, 6 h, 20 percent zymosan-activated rat serum, six hours, 37° C., read-out: ID50 (molar concentration that inhibited chemotaxis by 50 percent)): 0.2 µM
- inhibition at 0.01 µg/mL (peritoneal neutrophils; Mus musculus, Neutrophil, dose 0.01 μg/ml, read-out: Percent Inhibition of chemotaxis): 1.5%
- inhibition at 100 µg/mL (peritoneal neutrophils; Mus musculus, Neutrophil, dose 100.0 μg/ml, read-out: Percent Inhibition of chemotaxis): 68%
- inhibition at 200 µg/mL (peritoneal neutrophils; Mus musculus, Neutrophil, dose 200.0 μg/ml, read-out: Percent Inhibition of chemotaxis): 60%
- Percent Inhibition of chemotaxis (peritoneal neutrophils; dose 1.0 μg/ml): 69.0% and 65.0% and 90.0% and 88.5% and 77.0% and 63.5% and 70.0%
- Percent Inhibition of chemotaxis (peritoneal neutrophils; dose 10.0 μg/ml): 87.0% and 76.0% and 92.5% and 97.5% and 74.5%
- Percent Inhibition of chemotaxis (peritoneal neutrophils; dose 100.0 μg/ml): 80.5%
- relative activity in inhibiting neutrophil chemotaxis, in words (peritoneal neutrophils; in vitro): more active than any of the other assayed compounds
- inhibition of edema (rat paw [2]): 33-40%
- Clotting time, individual mouse (mouse blood coagulation; control 2.0-6.0, tripotassium salt): 2.0 min and 1.0 min and 4.0 min
- Average clotting time (mouse blood coagulation; control 4.33 ± 1.20, P<0.001): 2.0 ± 0.71 min
- maximal drug inhibition of edema (mouse paw [3]; one hour): 81%
- drug inhibition at higher enzyme level, in words (mouse paw [3]; two hours, 0.15 μg/ml enzyme, 100 mg/kg): not significant
- maximal drug inhibition of edema (mouse paw [3]; two hours): 87%
- buffering action, in words [4]: no buffering power
- inhibition of edema (mouse paw [5]): 33-40%
- Mean Pathology score (lung gross pathology; 50 mg/kg IV one hour before LPS, untreated 8.00 ± 1.02): 2.25 ± 1.10
- Drug Effect on mean pathology score (lung gross pathology; 50 mg/kg IV): -72%
